Data set [1] relates to phosphodiesterase (PDE) from human blood platelets. Description: PDE inhibition (phosphodiesterase from human blood platelets, 3H-cAMP hydrolysis). Type of data set: biochemical. The note with it: human platelet PDE, 1 μmol/liter 3H-cAMP, pH 7.4, 15 minutes at 37° C. How it is done: cAMP is hydrolyzed to AMP by phosphodiesterase (PDE) from various sources, including blood platelets.
The phosphodiesterase used was prepared by centrifugal extraction at 10,000 g from human blood platelets which were frozen in water and then thawed.
A quantity of 0.3 ml of a mixture containing 0.1 mol/liter of […] (pH 7.4), 3 mmols/liter of magnesium chloride, 1 mmol/liter of AMP, 1 μmol/liter of ^3 H-cAMP (specific activity about 10 MBq/μmol), PDE, and the inhibitor under investigation (water in the case of the control) was incubated for 15 minutes at 37° C. […] From a comparison of the results for inhibitor and control cases, the concentration of the respective inhibitor necessary for a 50% inhibiting effect (IC50) was calculated.

Data set [2] concerns thrombocyte aggregation. Description: Antithrombotic activity: collagen-induced thrombocyte aggregation in platelet-rich plasma (Born and Cross). Type of data set: cell-based. The note with it: Homo sapiens, 50% change in optical density, ten minutes at 37° C. How it is done: The thrombocyte aggregation is determined in platelet-rich plasma from healthy test subjects using the method of Born and Cross [J. Physiol. 170, 397 (1964)]. To inhibit coagulation, the blood is mixed with 3.14 percent of sodium citrate in a volume ratio of 1:10.
The pattern of the decrease in optical density of the platelet suspension after administration of the aggregation-initiating substance is measured photometrically and recorded. The speed of aggregation is deduced from the angle of inclination of the density curve. The point of the curve where there is the most light transmittance is used to calculate the optical density.
The quantity of collagen used is as small as possible, but sufficient to produce an irreversible reaction curve. The standard commercial collagen made by Hormonchemie of Munich is used. Before the collagen is administered, the plasma is incubated with the substance for ten minutes at 37° C.
From the measurements obtained, and EC50 is obtained graphically, relating to a 50% change in optical density by way of an inhibition of aggregation.

The subject of data set [3] is primary hemostasis. Description: Determination of the prolongation of bleeding time in conscious mice. The class given is in vivo. The note with it: Mus musculus, 1 h, 10 mg/kg oral, one hour, as compared to a control group, read-out: Prolongation of Bleeding Time after One Hour (%). How it is done: Since, in the event of injury, the first rapid cessation of bleeding is effected by the adhesion and aggregation of the thrombocytes at the vessel wall, the functioning of the thrombocytes can easily be determined by measuring the bleeding time with a standardized injury. The normal bleeding time in humans is between 1 and 3 minutes, assuming that there are sufficient intact, effective thrombocytes. If the number of thrombocytes is normal and the bleeding time is prolonged, this signifies an abnormality in the thrombocytes. This is found in some inborn errors of thrombocyte function. If, on the other hand, it is desired to prevent spontaneous aggregation of the thrombocytes and occlusion in the arterial system by drugs, successful therapy affecting the thrombocytes should prolong the bleeding time. Therefore, with use of an antithrombotic substance, a prolongation of the bleeding time is expected. Also, there should be a normal coagulation time since the plasma coagulation system is not affected.
To measure the bleeding time, 10 mg/kg of the test compounds were administered orally to conscious mice. After one hour, 0.5 mm of the tip of the tail of each mouse was cut off, and droplets of blood were gently removed with filter paper every 30 seconds. The number of drops of blood thus obtained gives a bleeding time (5 animals per experiment).
The results in the following table represent the prolongation of the bleeding time in percent as compared to a control group.

Data set [4] deals with mice. Nature of the data set: Acute toxicity after oral administration of a single dose. Type of data set: in vivo. The note with it: observation period 14 days; for Approximate Acute Toxicity: groups of ten, single oral dose; for animals died: single oral dose 1000 mg. How it is done: The acute toxicity of the test compounds was determined, as a guide, in groups of ten mice, after oral administration of a single dose (observation period: 14 days): […]

Usually IC50 stands for the point on the concentration scale where inhibition reaches its midpoint. One may read the EC50 as the concentration giving half of the maximal effect.

A value given as a limit tells only on which side of the number the result lay.

For the molecule `CC1(C)OC(=O)Nc2ccc(OCCCCS(=N)(=O)c3ccc(O)cc3)cc21` (stereo not shown) [B, 6-[4-(4-hydroxy-phenylsulfoximino)-butoxy]-4,4-dimethyl-4H-3,1-benzoxazin-2-one], half-maximal inhibition in data set [1] (IC50) was put at 0.23 µM. In data set [2], the response was half-maximal at 0.28 µM (EC50). For the same molecule, in data set [3], the change in vivo at 10 mg/kg was above 263%. In data set [4], the “Approximate Acute Toxicity” value was found to be 1000 mg and the animals died was 0 out of 10 animals died.

In turn, `COc1ccc(S(=N)(=O)CCCCOc2ccc3c(c2)C(C)(C)OC(=O)N3)cc1` (stereo not shown) [C, 6-[4-(4-methoxy-phenylsulfoximino)-butoxy]-4,4-dimethyl-4H-3,1-benzoxazin-2-one] showed an IC50 in data set [1] of 0.13 µM. Moreover, the EC50 in data set [2] was 0.27 µM. Moreover, the change in vivo at 10 mg/kg in data set [3] is above 241%. Besides, in data set [4], the “Approximate Acute Toxicity” value was 1000 mg and the animals died was 0 out of 10 animals died.

With `CC1(C)OC(=O)Nc2ccc(OCCCC[S+]([O-])c3ccc(Cl)cc3)cc21` (stereo not shown) [Compound A, 6-[4-(4-chloro-phenylsulfinyl)-butoxyl]-4,4-dimethyl-4H-3,1-benzoxazin-2-one], the IC50 in data set [1] was found to be 0.24 µM. In data set [2], this molecule yielded an EC50 of 0.34 µM. Moreover, the change in vivo at 10 mg/kg in data set [3] was above 248%. For the same molecule, in data set [4], the “Approximate Acute Toxicity” value amounted to 1000 mg and the animals died is on record as 0 out of 10 animals died.

As to `CC1(C)OC(=O)Nc2ccc(OCCCCS(=N)(=O)c3ccc(Br)cc3)cc21` (stereo not shown) [Compound I, 6-[4-(4-bromo-phenylsulfoximino)-butoxy]-4,4-dimethyl-4H-3,1-benzoxazin-2-one], 0.11 µM corresponded to half-maximal inhibition in data set [1] (IC50). This molecule displayed an EC50 in data set [2] of 0.33 µM. The change in vivo at 10 mg/kg in data set [3] is above 220%.

For `Cc1ccc([S+]([O-])CCCCOc2ccc3c(c2)C(C)(C)OC(=O)N3)cc1` (stereo not shown) [D, 6-[4-(4-methyl-phenylsulfinyl)-butoxy]-4,4-dimethyl-4H-3,1-benzoxazin-2-one], 0.21 µM corresponded to half-maximal inhibition in data set [1] (IC50). This molecule also had an EC50 in data set [2] of 0.33 µM. Besides, the change in vivo at 10 mg/kg in data set [3] was above 250%. Also, in data set [4], the “Approximate Acute Toxicity” value was 1000 mg and the animals died is 0 out of 10 animals died.

With `CC1(C)OC(=O)Nc2ccc(OCCCC[S+]([O-])c3ccc(C4CCCCC4)cc3)cc21` (stereo not shown) [E, 6-[4-(4-cyclohexyl-phenylsulfinyl)-butoxy]-4,4-dimethyl-4H-3,1-benzoxazin-2-one], inhibition in data set [1] was half-maximal at 0.078 µM (IC50). The molecule also showed an EC50 in data set [2] of 0.32 µM. In addition, the change in vivo at 10 mg/kg in data set [3] is 46%. In data set [4], the “Approximate Acute Toxicity” value came to 1000 mg and the animals died was 0 out of 10 animals died.

In the case of `CC1(C)OC(=O)Nc2ccc(OCCCCS(=N)(=O)c3ccc(Cl)c(Cl)c3)cc21` (stereo not shown) [F, 6-[4-(3,4-dichloro-phenylsulfoximino)-butoxy]-4,4-dimethyl-4H-3,1-benzoxazin-2-one], the IC50 in data set [1] amounted to 0.042 µM. For the same molecule, the EC50 in data set [2] amounted to 0.21 µM. In data set [3], the change in vivo at 10 mg/kg is above 275%.

`COc1cccc(S(=N)(=O)CCCCOc2ccc3c(c2)C(C)(C)OC(=O)N3)c1` (stereo not shown) [G]: half-maximal inhibition in data set [1] (IC50) required 0.077 µM. The same molecule registered a half-maximal effective concentration (EC50) in data set [2] of 0.27 µM. Further, the change in vivo at 10 mg/kg in data set [3] was above 245%.

`CC1(C)OC(=O)Nc2ccc(OCCCCS(=N)(=O)c3ccc(F)cc3)cc21` (stereo not shown) [H, 6-[4-(4-fluoro-phenylsulfoximino)-butoxy]-4,4-dimethyl-4H-3,1-benzoxazin-2-one] came in with an IC50 in data set [1] of 0.18 µM. In data set [2], this molecule yielded an EC50 of 0.32 µM. For the same molecule, the change in vivo at 10 mg/kg in data set [3] is above 211%.

`O=C1Nc2ccc(OCCCC[S+]([O-])c3ccccc3)cc2CO1` (stereo not shown) [K, 6-(4-phenylsulfinyl-butoxy)-4H-3,1-benzoxazin-2-one] gave an IC50 in data set [1] of 1.5 µM. In data set [2], this molecule had an EC50 of 1.9 µM. Further, the change in vivo at 10 mg/kg in data set [3] amounted to 121%.

As for `CC1(C)OC(=O)Nc2ccc(OCCCC[S+]([O-])c3ccc(Br)cc3)cc21` (stereo not shown) [L, 6-[4-(4-bromo-phenylsulfinyl)-butoxy]-4,4-dimethyl-4H-3,1-benzoxazin-2-one], in data set [1], the IC50 came to 0.24 µM. Further, it took 0.42 µM to reach a half-maximal effect in data set [2] (EC50). Further, the change in vivo at 10 mg/kg in data set [3] is above 266%.

Molecule `Cc1cc(S(=N)(=O)CCCCOc2ccc3c(c2)C(C)(C)OC(=O)N3)ccc1Br` (stereo not shown) [M, 6-[4-(4-bromo-3-methyl-phenylsulfoximino)-butoxy]-4,4-dimethyl-4H-3,1-benzoxazin-2-one] gave an IC50 in data set [1] of 0.066 µM. This molecule also had an EC50 in data set [2] of 0.25 µM. Also, in data set [3], the change in vivo at 10 mg/kg is 100%.

In data set [1], `Cc1ccc(S(=N)(=O)CCCCOc2ccc3c(c2)C(C)(C)OC(=O)N3)cc1` (stereo not shown) [N, 6-[4-(4-methyl-phenylsulfoximino)-butoxy]-4,4-dimethyl-4H-3,1-benzoxazin-2-one] displayed a half-maximal inhibitory concentration (IC50) of 0.065 µM. In data set [2], this molecule gave an EC50 of 0.22 µM. Further, the change in vivo at 10 mg/kg in data set [3] was 63%.

Consider `COc1ccc(S(=N)(=O)CCCCOc2ccc3c(c2)C(C)(C)OC(=O)N3)cc1OC` (stereo not shown) [O, 6-[4-(3,4-dimethoxy-phenylsulfoximino)-butoxy]-4,4-dimethyl-4H-3,1-benzoxazin-2-one], for which the 50% inhibitory concentration (IC50) in data set [1] turned out to be 0.2 µM. Also, in data set [2], the EC50 came out at 0.27 µM. Further, in data set [3], the change in vivo at 10 mg/kg is above 227%.

With `CC1(C)OC(=O)Nc2ccc(OCCCC[S+]([O-])c3cc(Br)c(N)c(Br)c3)cc21` (stereo not shown) [P, 6-[4-(4-amino-3,5-dibromo-phenylsulfinyl)-butoxy]-4,4-dimethyl-4H-3,1-benzoxazin-2-one], the IC50 in data set [1] amounted to 0.056 µM. The molecule also yielded an EC50 in data set [2] of 0.55 µM. Also, in data set [3], the change in vivo at 10 mg/kg worked out at 73%.

In the case of `CC1(C)OC(=O)Nc2ccc(OCCCCS(=N)(=O)c3ccc(-c4ccccc4)cc3)cc21` (stereo not shown) [Q, 6-[4-(4-biphenylyl-sulfoximino)-butoxy]-4,4-dimethyl-4H-3,1-benzoxazin-2-one], the IC50 in data set [1] stood at 0.0068 µM. This molecule showed an EC50 in data set [2] of 0.25 µM. In data set [3], the change in vivo at 10 mg/kg worked out at 128%.

As to `COc1ccc(S(=O)(CCCCOc2ccc3c(c2)C(C)(C)OC(=O)N3)=NC(C)=O)cc1OC` (stereo not shown) [R, 6-[4-(3,4-dimethoxy-N-acetyl-phenylsulfoximino)-butoxy]-4,4-dimethyl-4H-3,1-benzoxazin-2-one], in data set [1], the IC50 was found to be 0.71 µM. The response in data set [2] was half-maximal at 2.3 µM (EC50). Also, the change in vivo at 10 mg/kg in data set [3] is above 241%. Moreover, in data set [4], the “Approximate Acute Toxicity” value came to 1000 mg and the animals died is recorded as 0 out of 10 animals died.

As for `CC(=O)N=S(=O)(CCCCOc1ccc2c(c1)C(C)(C)OC(=O)N2)c1cc(C(C)(C)C)c(O)c(C(C)(C)C)c1` (stereo not shown) [S, 6-[4-(3,5-di-tert.butyl-4-hydroxy-N-acetyl-phenylsulfoximino)-butoxy]-4,4-dimethyl-4H-3,1-benzoxazin-2-one], 0.077 µM corresponded to half-maximal inhibition in data set [1] (IC50). The same molecule had an EC50 in data set [2] of 2.2 µM. Further, the change in vivo at 10 mg/kg in data set [3] is above 226%. Besides, in data set [4], the “Approximate Acute Toxicity” value turned out to be 1000 mg and the animals died is recorded as 0 out of 10 animals died.

In data set [1], `Cc1ccc(S(=N)(=O)CCCCOc2cc3c(cc2Br)NC(=O)OC3(C)C)cc1` (stereo not shown) [T, 7-bromo-4,4-dimethyl-6-[4-(4-methyl-phenylsulfoximino)-butoxy]-4H-3,1-benzoxazin-2-one] showed a concentration for half-maximal inhibition (IC50) of 0.001 µM. Besides, the EC50 in data set [2] is 0.069 µM. For the same molecule, in data set [3], the change in vivo at 10 mg/kg worked out at 60%. Moreover, in data set [4], the “Approximate Acute Toxicity” value is on record as 1000 mg and the animals died is on record as 0 out of 10 animals died.
